Assay [1] addresses KRAS G12D (Homo sapiens, UniProt P01116, G12D). Put plainly: GDP-GTP exchange assay (KRAS G12D). Conditions: bodipy-GDP/GppNHp exchange with SOS1; 4 h pre-incubation, 2 h reaction. Format: biochemical. How it is done: (§1) The inhibitor potency of the exemplified compounds was determined in a fluorescence based guanine nucleotide exchange assay, which measures the exchange of bodipy-GDP (fluorescently labeled GDP) for GppNHp (Non-hydrolyzable GTP analog) to generate the active state of KRAS in the presence of SOS1 (guanine nucleotide exchange factor). Inhibitors were serially diluted in DMSO and a volume of 0.1 μL was transferred to the wells of a black low volume 384-well plate. 5 μL/well volume of bodipy-loaded KRAS G12D diluted to 2.5 nM in assay buffer (25 mM Hepes pH 7.5, 50 mM NaCl, 10 mM MgCl2 and 0.01% Brij-35) was added to the plate and pre-incubated with inhibitor for 4 h at r.t. Appropriate controls (enzyme with no inhibitor or with a G12D inhibitor) were included on the plate. The exchange was initiated by the addition of a 5 μL/well volume containing 1 mM GppNHp and 300 nM SOS1 in assay buffer. The 10 μL/well reaction concentration of the bodipy-loaded KRAS G12D, GppNHp, and SOS1 were 2.5 nM, 500 μM, and 150 nM, respectively. The reaction plates were incubated at r.t. for 2 h, a time estimated for complete GDP-GTP exchange in the absence of inhibitor. For the KRAS G12V mutant, similar guanine nucleotide exchange assays were used with 2.5 nM as final concentration for the bodipy loaded KRAS proteins and 3 h incubation after adding GppNHp-SOS1 mixture. A cyclic peptide described to selectively bind G12D mutant (Sakamoto et al., BBRC 484.3 (2017), 605-611) or internal compounds with confirmed binding were used as positive controls in the assay plates. Fluorescence intensities were measured on a PheraStar plate reader instrument (BMG Labtech) with excitation at 485 nm and emission at 520 nm.
(§2) Either GraphPad prism or Genedata Screener SmartFit was used to analyze the data. The IC50 values were derived by fitting the data to a four parameter logistic equation producing a sigmoidal dose-response curve with a variable Hill coefficient.
(§3) The symbol “⬆” indicates IC50 100 nM, “⬆⬆” indicates IC50 >100 nM but ≤1 μM; and “⬆⬆⬆” indicates IC50 is >1 μM but ≤5 μM, “⬆⬆⬆⬆” indicates IC50 is >5 μM but ≤10 μM. “NA” indicates IC50 not available.

The target in assay [2] is KRAS G12V (Homo sapiens, UniProt P01116, G12V). Put plainly: GDP-GTP exchange assay (KRAS G12V). The assay is classed as biochemical. Particulars: bodipy-GDP/GppNHp exchange with SOS1; 3 h incubation after GppNHp-SOS1. The protocol:
as §1, §2, §3
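Note: one dagger IC50 up to 100 nM and two daggers above 100 nM up to 1 μM.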

KRAS G12V, sequence (P01116 1-188 isoform P01116-2 G12V): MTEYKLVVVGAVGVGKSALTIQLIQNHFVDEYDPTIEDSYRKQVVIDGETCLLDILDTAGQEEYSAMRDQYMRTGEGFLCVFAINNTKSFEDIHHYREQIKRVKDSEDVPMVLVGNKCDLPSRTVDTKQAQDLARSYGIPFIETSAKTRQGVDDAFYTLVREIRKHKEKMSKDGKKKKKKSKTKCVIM
KRAS G12D, sequence (P01116 1-188 isoform P01116-2 G12D): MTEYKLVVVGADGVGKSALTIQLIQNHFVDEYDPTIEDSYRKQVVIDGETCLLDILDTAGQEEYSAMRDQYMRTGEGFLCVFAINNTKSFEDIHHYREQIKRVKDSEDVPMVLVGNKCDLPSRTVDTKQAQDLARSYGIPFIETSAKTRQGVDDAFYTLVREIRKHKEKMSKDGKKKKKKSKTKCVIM

Turning to `Cc1nc2c(F)c(-c3cccc(Cl)c3Cl)c(CCC#N)cc2c2c1cc([C@H]1[C@H]3C[C@H](CN(c4cnc5cccnc5c4)C3)N1C(=O)C1CC1)n2[C@H]1[C@H]2CN[C@@H]1C2` (atropisomer, axis not shown; (Ra)) [Example 6, 3-((Ra)-1-((1R,4R,5S)-2-azabicyclo[2.1.1]hexan-5-yl)-2-((1S,5R,7R)-6-(cyclopropanecarbonyl)-3-(1,5-naphthyridin-3-yl)-3,6-diazabicyclo[3.2.1]octan-7-yl)-7-(2,3-dichlorophenyl)-6-fluoro-4-methyl-1H-pyrrolo[3,2-c]quinolin-8-yl)propanenitrile], the “G12D_exchange (KRAS_G12D exchange assay IC50)” value (shortened to “G12D_exchange”) in assay [1] is “†”. In addition, in assay [2], the “G12V_exchange (KRAS_G12V exchange assay IC50)” value (“G12V_exchange” for short) was “†”. For the compound `Cc1nc2c(F)c(-c3cccc(Cl)c3Cl)c(CCC#N)cc2c2c1cc([C@H]1[C@H]3C[C@H](CN(c4cnn(C)c4)C3)N1C(=O)C1CC1)n2[C@H]1[C@H]2CN[C@@H]1C2` (atropisomer, axis not shown; (Ra)) [Example 11, 3-((Ra)-1-((1R,4R,5S)-2-azabicyclo[2.1.1]hexan-5-yl)-2-((1S,5R,7R)-6-(cyclopropanecarbonyl)-3-(1-methyl-1H-pyrazol-4-yl)-3,6-diazabicyclo[3.2.1]octan-7-yl)-7-(2,3-dichlorophenyl)-6-fluoro-4-methyl-1H-pyrrolo[3,2-c]quinolin-8-yl)propanenitrile], the “G12D_exchange” value in assay [1] is on record as “†”. Also, the “G12V_exchange” value in assay [2] is recorded as “†”. `Cc1nc2c(F)c(-c3cccc(Cl)c3Cl)c(CCC#N)cc2c2c1cc([C@H]1[C@H]3C[C@H](CN(c4ccccc4C(F)(F)F)C3)N1C(=O)C1CC1)n2[C@H]1[C@H]2CN[C@@H]1C2` (atropisomer, axis not shown; (Ra)) [Example 16, 3-((Ra)-1-((1R,4R,5S)-2-azabicyclo[2.1.1]hexan-5-yl)-2-((1S,5R,7R)-6-(cyclopropanecarbonyl)-3-(2-(trifluoromethyl)phenyl)-3,6-diazabicyclo[3.2.1]octan-7-yl)-7-(2,3-dichlorophenyl)-6-fluoro-4-methyl-1H-pyrrolo[3,2-c]quinolin-8-yl)propanenitrile]: the “G12D_exchange” value in assay [1] is on record as “†††”. Besides, in assay [2], the “G12V_exchange” value is given as “†††”.

On to `Cc1nc2c(F)c(-c3cccc(Cl)c3Cl)c(CCC#N)cc2c2c1cc([C@H]1[C@H]3C[C@H](CN(c4cc(C(F)(F)F)cc(C(F)(F)F)c4)C3)N1C(=O)C1CC1)n2[C@H]1[C@H]2CN[C@@H]1C2` (atropisomer, axis not shown; (Ra)) [Example 18, 3-((Ra)-1-((1R,4R,5S)-2-azabicyclo[2.1.1]hexan-5-yl)-2-((1S,5R,7R)-3-(3,5-bis(trifluoromethyl)phenyl)-6-(cyclopropanecarbonyl)-3,6-diazabicyclo[3.2.1]octan-7-yl)-7-(2,3-dichlorophenyl)-6-fluoro-4-methyl-1H-pyrrolo[3,2-c]quinolin-8-yl)propanenitrile], for which the “G12D_exchange” value in assay [1] is “††”. In assay [2], the “G12V_exchange” value is “†”. In the case of `Cc1nc2c(F)c(-c3cccc(Cl)c3Cl)c(CCC#N)cc2c2c1cc([C@H]1[C@H]3C[C@H](CN(c4ccncc4)C3)N1C(=O)C1CC1)n2[C@H]1[C@H]2CN[C@@H]1C2` (atropisomer, axis not shown; (Ra)) [Example 37, 3-((Ra)-1-((1R,4R,5S)-2-azabicyclo[2.1.1]hexan-5-yl)-2-((1S,5R,7R)-6-(cyclopropanecarbonyl)-3-(pyridin-4-yl)-3,6-diazabicyclo[3.2.1]octan-7-yl)-7-(2,3-dichlorophenyl)-6-fluoro-4-methyl-1H-pyrrolo[3,2-c]quinolin-8-yl)propanenitrile], the “G12D_exchange” value in assay [1] is on record as “†”. The “G12V_exchange” value in assay [2] is reported as “†”. Take `Cc1nc2c(F)c(-c3cccc(Cl)c3Cl)c(CCC#N)cc2c2c1cc([C@H]1[C@H]3C[C@H](CN(c4cccc(=O)n4C)C3)N1C(=O)C1CC1)n2[C@H]1[C@H]2CN[C@@H]1C2` (atropisomer, axis not shown; (Ra)) [Example 57, 3-((Ra)-1-((1R,4R,5S)-2-azabicyclo[2.1.1]hexan-5-yl)-2-((1S,5R,7R)-6-(cyclopropanecarbonyl)-3-(1-methyl-6-oxo-1,6-dihydropyridin-2-yl)-3,6-diazabicyclo[3.2.1]octan-7-yl)-7-(2,3-dichlorophenyl)-6-fluoro-4-methyl-1H-pyrrolo[3,2-c]quinolin-8-yl)propanenitrile]: in assay [1], the “G12D_exchange” value is given as “††”. The “G12V_exchange” value in assay [2] is “†”. The like results for `Cc1nc2c(F)c(-c3cccc(Cl)c3Cl)c(CCC#N)cc2c2c1cc([C@H]1[C@H]3C[C@H](CN(c4ccnc(C#N)c4)C3)N1C(=O)C1CC1)n2[C@H]1[C@H]2CN[C@@H]1C2` (atropisomer, axis not shown; (Ra)) [Example 63, 4-((1S,5R,7R)-7-((Ra)-1-((1R,4R,5S)-2-azabicyclo[2.1.1]hexan-5-yl)-8-(2-cyanoethyl)-7-(2,3-dichlorophenyl)-6-fluoro-4-methyl-1H-pyrrolo[3,2-c]quinolin-2-yl)-6-(cyclopropanecarbonyl)-3,6-diazabicyclo[3.2.1]octan-3-yl)picolinonitrile] were, in that order, “†” and “†”. With `Cc1nc2c(F)c(-c3cccc(Cl)c3Cl)c(CCC#N)cc2c2c1cc([C@H]1[C@H]3C[C@H](CN(c4cc(C)n(C)c(=O)c4)C3)N1C(=O)C1CC1)n2[C@H]1[C@H]2CN[C@@H]1C2` (atropisomer, axis not shown; (Ra)) [Example 66, 3-((Ra)-1-((1R,4R,5S)-2-azabicyclo[2.1.1]hexan-5-yl)-2-((1S,5R,7R)-6-(cyclopropanecarbonyl)-3-(1,6-dimethyl-2-oxo-1,2-dihydropyridin-4-yl)-3,6-diazabicyclo[3.2.1]octan-7-yl)-7-(2,3-dichlorophenyl)-6-fluoro-4-methyl-1H-pyrrolo[3,2-c]quinolin-8-yl)propanenitrile], in assay [1], the “G12D_exchange” value is given as “†”. In addition, the “G12V_exchange” value in assay [2] is recorded as “†”. For the compound `Cc1c(F)ccnc1N1C[C@@H]2C[C@H](C1)N(C(=O)C1CC1)[C@H]2c1cc2c(C)nc3c(F)c(-c4cccc(Cl)c4Cl)c(CCC#N)cc3c2n1[C@H]1[C@H]2CN[C@@H]1C2` (atropisomer, axis not shown; (Ra)) [Example 75, 3-((Ra)-1-((1R,4R,5S)-2-azabicyclo[2.1.1]hexan-5-yl)-2-((1S,5R,7R)-6-(cyclopropanecarbonyl)-3-(4-fluoro-3-methylpyridin-2-yl)-3,6-diazabicyclo[3.2.1]octan-7-yl)-7-(2,3-dichlorophenyl)-6-fluoro-4-methyl-1H-pyrrolo[3,2-c]quinolin-8-yl)propanenitrile], in assay [1], the “G12D_exchange” value is “††”. In assay [2], the “G12V_exchange” value is “†”. Turning to `COc1nccc(N2C[C@@H]3C[C@H](C2)N(C(=O)C2CC2)[C@H]3c2cc3c(C)nc4c(F)c(-c5cccc(Cl)c5Cl)c(CCC#N)cc4c3n2[C@H]2[C@H]3CN[C@@H]2C3)c1C` (atropisomer, axis not shown; (Ra)) [Example 77, 3-((Ra)-1-((1R,4R,5S)-2-azabicyclo[2.1.1]hexan-5-yl)-2-((1S,5R,7R)-6-(cyclopropanecarbonyl)-3-(2-methoxy-3-methylpyridin-4-yl)-3,6-diazabicyclo[3.2.1]octan-7-yl)-7-(2,3-dichlorophenyl)-6-fluoro-4-methyl-1H-pyrrolo[3,2-c]quinolin-8-yl)propanenitrile], in assay [1], the “G12D_exchange” value is listed as “††”. In assay [2], the “G12V_exchange” value was “†”. Consider `Cc1nc2c(F)c(-c3cccc(Cl)c3Cl)c(CCC#N)cc2c2c1cc([C@H]1[C@H]3C[C@H](CN(c4cc(C(C)(F)F)ncn4)C3)N1C(=O)CO)n2[C@H]1[C@H]2CN[C@@H]1C2` (atropisomer, axis not shown; (Ra)) [Example 129, 3-((Ra)-1-((1R,4R,5S)-2-azabicyclo[2.1.1]hexan-5-yl)-7-(2,3-dichlorophenyl)-2-((1 S,5R,7R)-3-(6-(1,1-difluoroethyl)pyrimidin-4-yl)-6-(2-hydroxyacetyl)-3,6-diazabicyclo[3.2.1]octan-7-yl)-6-fluoro-4-methyl-1H-pyrrolo[3,2-c]quinolin-8-yl)propanenitrile], for which the “G12V_exchange” value in assay [2] is “†”.

The record behind these values is patent US20250195536A1, “BICYCLOOCTANE KRAS INHIBITORS” (Incyte Corporation, priority 2023, published 2025).
